Earlier results on one compound are cited in patent US12616202B2, “Agricultural formulations, uses thereof and processes for preparation thereof” (priority 2018, dated 2026).

With `COCC(=O)N(c1c(C)cccc1C)C(C)C(=O)OC` (stereo not shown) [metalaxyl, Metalaxyl], the water solubility was 8,400 parts per million.
